Experimental findings from patent US20260232692A1, “Methods Of Treating Cancer Using BCL-2 Inhibitors With Iron And Heme Supplementation Therapies” (Emory University, priority 2023, published 2026) are described below.

“Also recorded” adds a separate entry of the source.

One test deals with VS t(11; 14) cell lines. The test is described as follows: Rescue of FAC mediated cell death in VS t(11;14) cell lines. Format: cell-based. As to conditions: in the presence and absence of venetoclax. As for the experimental part:
Intracellular iron overload, ROS mediated lipid peroxidation, and loss of GSH/GPX4 mediated antioxidant defenses are all features of ferroptosis. Experiments were performed to determine whether FAC supplementation in VS t(11; 14) MM promotes cell death via ferroptosis. VS t(11; 14) cell lines were treated with a ferrostatin (Fn-1), a synthetic antioxidant that acts via a reductive mechanism to prevent damage to membrane lipids and thereby, inhibits cell death. Inhibiting ferroptosis was able to fully rescue the cell death induced by FAC both in the presence and absence of venetoclax (FIG. 8B). Boc-D-FMK is a caspase inhibitor that inhibits apoptosis.

The test system of test [1] is venetoclax sensitive (VS) multiple myeloma (MM) cell lines. The test is described as follows: Hemin/5-ALA supplementation and Ven sensitivity in VS MM cell lines, Annexin V/DAPI flow cytometry. The test is classed as cell-based. To be noted: 50 μM Hemin/5-ALA pre-treatment 24 hours, then Ven 24 hrs. As to the method: Cell death/viability was assessed by Annexin V/DAPI flow cytometric staining.
To test the necessity for reduced heme synthesis for Ven sensitivity in t(11; 14) MM, Ven treated cells were supplemented with either the heme synthesis precursor 5-ALA or hemin (oxidized heme and active ingredient of clinically approved Panhematin™).
Background: In flow cytometry, cells or beads pass a laser one at a time.

The subject of a further test is MEK-ERK-mTORC1 signaling. Nature of the test: MEK-ERK-mTORC1 signaling in whole cell lysates of VS MM treated with hemin. Format: cell-based. As to conditions: 50 μM hemin and/or 0.05 μM Ven for 18 h. As for the experimental part: Whole cell lysates of indicated lines were treated with 50 μM hemin and/or 0.05 μM Ven for 18 h. Indicated VS cells were treated with 50 µM hemin and 0.05 μM Ven and RAF, MEK, or ERK-inhibitors. Cell death/viability was evaluated by Annexin V/DAPI flow cytometric staining.

The test system of test [2] is venetoclax sensitive acute myeloid leukemia (AML) cell lines. Nature of the test: Hemin supplementation and venetoclax sensitivity in AML cell lines. Format: cell-based.
For test [3], the system named is VS t(11; 14) MM cell lines. The test is described as follows: Growth/viability of VS t(11;14) MM cell lines under iron chelation or supplementation (CellTiter-Glo 3D). Format: cell-based. As to conditions: iron chelation with DFO or supplementation with FAC (500 μM FAC up to 96 h, FIG. 7A). As to the method:
Cells were treated with 500 μM FAC up to 96 h and assessed for viability using CellTiter-Glo® 3D Cell Viability Assay.
Iron is a cofactor for the maintenance of ETC activity. The impact of modulating iron levels either by chelation with deferoxamine (DFO) or supplementation with ferric ammonium citrate (FAC) was assessed in a panel of VS t(11; 14) and VR non t(11; 14) MM cell lines.

For test [4], the system named is reactive oxygen species (ROS) in VS t(11; 14) MM. To be noted: FAC treated VS t(11;14) MM. The source says: (§1) Free or excess intracellular iron is a potent inducer of reactive oxygen species (ROS) and oxidative stress.
Test [5] concerns iron homeostasis-related protein in VS t(11; 14) cell lines. As to the method: FIG. 8B show data on the expression of iron homeostasis-related protein in whole cell lysates supplemented with 500 μM FAC for 72 h in indicated cell lines by immunoblotting using actin as a loading control. Indicated cell lines were treated with a ferroptotic inhibitor, ferrostatin (Fn-1).
as §1

The test system of another test is t(11; 14) patient sample. To be noted: FAC 250 μM and 500 μM, venetoclax 0.001, 0.005 and 0.01 μM, FIG. 7C.

With `COC(=O)CC(NC(=O)OC(C)(C)C)C(=O)CF` [Boc-D-FMK], the “rescue of cell death induced by FAC” value with VS t(11; 14) cell lines is on record as “not able to rescue”.

`C=CC1=C(C)c2cc3[n-]c(cc4[n-]c(cc5nc(cc1n2)C(C)=C5C=C)c(C)c4CCC(=O)O)c(CCC(=O)O)c3C.[Fe+2]` [hemin, [7,12-diethenyl-3,8,13,17-tetramethyl-21H,23H-porphine-2,18-dipropanoato(2-)-N21,N22,N23,N24] iron]: the “reversal (rescue) of Ven sensitivity” value in test [1] was “significantly reversed; also recorded: reverses”. Also, the MEK-ERK-mTORC1 signaling result in the test on MEK-ERK-mTORC1 signaling was “restores”. In addition, in test [2], the “reversal of venetoclax sensitivity” value is given as “reverses”.

`CCOC(=O)c1ccc(NC2CCCCC2)c(N)c1` [ferrostatin]: the “rescue of cell death induced by FAC” value in the test with VS t(11; 14) cell lines is listed as “sufficient to mitigate; also recorded: fully rescue”.

For the compound ferric ammonium citrate [FAC], the “effect on growth/proliferation of VS cell lines” value in test [3] is reported as “specifically inhibit the proliferation; also recorded: growth suppressive effect”. Further, the “cytosolic ROS levels” value in test [4] was “not in cytosolic ROS levels”. Also, the “mitochondrial ROS” value in test [4] (48 h) is “significant elevation”. Also, in test [5] (FAC treatment), the “cystine-glutamate antiporter SLC7A11 expression” value is “not altered”, the “iron importer TFR1 expression” value was “reduction” and the “iron storage protein ferritin expression” value was “increase”. In addition, the “glutathione peroxidase 4 (GPX4) protein expression” value in test [5] (all VS t(11;14) cell lines, 500 μM FAC for 72 h) was “consistent reduction”. For the same compound, the “sensitivity to venetoclax with iron supplementation” value in the test with t(11; 14) patient sample is given as “A similar response”.
